Data reported in US20210053957A1, “HERBICIDAL COMPOUNDS” (SYNGENTA PARTICIPATIONS AG, priority 2018, published 2021).

Key:
Experiment in all cases: Post-emergence efficacy, glasshouse spray test
Assay type in all cases: in vivo
Details in all cases: evaluated after 13 days
[1] = system: Amaranthus palmeri (AMAPA)
Method: (§1) Seeds of a variety of test species were sown in standard soil in pots. After cultivation for 14 days (post-emergence) under controlled conditions in a glasshouse (at 24/16° C. day/night; 14 hours light; 65% humidity), the plants were sprayed with an aqueous spray solution derived from the dissolution of the technical active ingredient formula (I) in a small amount of acetone and a special solvent and emulsifier mixture referred to as IF50 (11.12% Emulsogen EL360 TM+44.44% N-methyl pyrrolidone+44.44% Dowanol DPM glycolether), to create a 50 g/l solution which was then diluted to required concentration using 0.25% or 1% Empicol ESC70 (Sodium lauryl ether sulphate)+1% ammonium sulphate as diluent. The test plants were then grown in a glasshouse under controlled conditions (at 24/16° C., day/night; 14 hours light; 65% humidity) and watered twice daily. After 13 days the test was evaluated (100=total damage to plant; 0=no damage to plant).
(§2) Ipomoea hederacea (IPOHE), Euphorbia heterophylla (EPHHL), Chenopodium album (CHEAL), Amaranthus palmeri (AMAPA), Lolium perenne (LOLPE), Digitaria sanguinalis (DIGSA), Eleusine indica (ELEIN), Echinochloa crus-galli (ECHCG), Setaia fabei (SETFA)

[2] = system: Chenopodium album (CHEAL)
Method: as §1, §2

[3] = system: Digitaria sanguinalis (DIGSA)
Method: as §1, §2

[4] = system: Echinochloa crus-galli (ECHCG)
Method: as §1, §2

[5] = system: Eleusine indica (ELEIN)
Method: as §1, §2

[6] = system: Ipomoea hederacea (IPOHE)
Method: as §1, §2

[7] = system: Lolium perenne (LOLPE)
Method: as §1, §2

[8] = system: Setaia fabei (SETFA)
Method: as §1, §2

[9] = Amaranthus palmeri, post-emergence, 312 h, Application Rate 500 g/Ha, read-out: Control of weed species after post-emergence application, AMAPA (100=total damage to plant; 0=no damage to plant)
[10] = Chenopodium album, post-emergence, 312 h, Application Rate 500 g/Ha, read-out: Control of weed species after post-emergence application, CHEAL (100=total damage to plant; 0=no damage to plant)
[11] = Digitaria sanguinalis, post-emergence, 312 h, Application Rate 500 g/Ha, read-out: Control of weed species after post-emergence application, DIGSA (100=total damage to plant; 0=no damage to plant)
[12] = Echinochloa crus-galli, post-emergence, 312 h, Application Rate 500 g/Ha, read-out: Control of weed species after post-emergence application, ECHCG (100=total damage to plant; 0=no damage to plant)
[13] = Eleusine indica, post-emergence, 312 h, Application Rate 500 g/Ha, read-out: Control of weed species after post-emergence application, ELEIN (100=total damage to plant; 0=no damage to plant)
[14] = Ipomoea hederacea, post-emergence, 312 h, Application Rate 500 g/Ha, read-out: Control of weed species after post-emergence application, IPOHE (100=total damage to plant; 0=no damage to plant)
[15] = Lolium perenne, post-emergence, 312 h, Application Rate 500 g/Ha, read-out: Control of weed species after post-emergence application, LOLPE (100=total damage to plant; 0=no damage to plant)
[16] = Setaria faberi, post-emergence, 312 h, Application Rate 500 g/Ha, read-out: Control of weed species after post-emergence application, SETFA (100=total damage to plant; 0=no damage to plant)

| SMILES | pest or weed control at 500 g/ha [1, 9] [%] | pest or weed control at 500 g/ha [2, 10] [%] | pest or weed control at 500 g/ha [3, 11] [%] | pest or weed control at 500 g/ha [4, 12] [%] | pest or weed control at 500 g/ha [5, 13] [%] | pest or weed control at 500 g/ha [6, 14] [%] | pest or weed control at 500 g/ha [7, 15] [%] | pest or weed control at 500 g/ha [8, 16] [%] | other results |
| --- | --- | --- | --- | --- | --- | --- | --- | --- | --- |
| CC(C)c1csc(-c2cc[n+](CCC(=O)O)nc2)n1.O=C([O-])C(F)(F)F [Compound A24] |  |  |  |  |  |  |  |  | Control of weed species after post-emergence application, AMAPA (100=total damage to plant; 0=no damage to plant) ([1]; Application Rate 500 g/Ha): 0; Control of weed species after post-emergence application, CHEAL (100=total damage to plant; 0=no damage to plant) ([2]; Application Rate 500 g/Ha): 0; Control of weed species after post-emergence application, DIGSA (100=total damage to plant; 0=no damage to plant) ([3]; Application Rate 500 g/Ha): 10; Control of weed species after post-emergence application, ECHCG (100=total damage to plant; 0=no damage to plant) ([4]; Application Rate 500 g/Ha): 30; Control of weed species after post-emergence application, ELEIN (100=total damage to plant; 0=no damage to plant) ([5]; Application Rate 500 g/Ha): 20; Control of weed species after post-emergence application, IPOHE (100=total damage to plant; 0=no damage to plant) ([6]; Application Rate 500 g/Ha): 10; Control of weed species after post-emergence application, LOLPE (100=total damage to plant; 0=no damage to plant) ([7]; Application Rate 500 g/Ha): 10; Control of weed species after post-emergence application, SETFA (100=total damage to plant; 0=no damage to plant) ([8]; Application Rate 500 g/Ha): 20 |
| COc1csc(-c2cc[n+](CCS(=O)(=O)[O-])nc2)n1 [Compound A26] | 20 | 40 | 30 | 20 | 40 | 40 | 30 | 40 |  |
| Cn1nnc(-c2cc[n+](CCC(=O)O)nc2)n1 [Compound A28] | 100 | 90 | 70 | 100 | 100 | 30 | 70 | 100 |  |
| O=C(O)CC[n+]1ccc(-c2cccs2)cn1 [Compound A41] | 0 | 60 | 0 | 0 | 0 | 10 | 0 | 0 |  |
| O=S(=O)([O-])CC[n+]1ccc(-c2ncc(Cl)s2)cn1 [Compound A44] | 100 |  | 50 | 30 | 50 | 60 | 30 | 60 |  |
| O=C(O)CC[n+]1ccc(-c2nc(Cl)cs2)cn1 [Compound A46] |  | 70 | 60 | 80 | 60 | 50 | 40 | 60 |  |
| O=C(O)CC[n+]1ccc(-c2ccco2)cn1 [Compound A52] | 50 |  | 30 | 10 | 10 | 10 | 0 | 10 |  |
| O=S(=O)([O-])CC[n+]1ccc(-c2ccco2)cn1 [Compound A53] | 60 |  | 90 | 30 | 60 | 50 | 20 | 40 |  |
| Cc1nsc(-c2cc[n+](CCS(=O)(=O)[O-])nc2)c1C [Compound A54, 2-[4-(3,4-dimethylisothiazol-5-yl)pyridazin-1-ium-1-yl]ethanesulfonate] | 80 | 50 | 90 | 70 | 80 | 10 | 60 | 70 |  |
| Cc1coc(-c2cc[n+](CCC(=O)O)nc2)n1 [Compound A55] | 100 | 80 | 100 | 100 | 100 | 20 | 70 | 100 |  |
| Cc1nsc(-c2cc[n+](CCC(=O)O)nc2)c1C [Compound A58] | 80 | 50 | 90 | 70 | 40 | 20 | 30 | 90 |  |
| COC(=O)C[n+]1ccc(-c2ncco2)cn1 [Compound A66] | 50 | 60 | 60 | 70 | 90 | 10 | 20 | 70 |  |
| COC(=O)CCC[n+]1ccc(-c2ncco2)cn1 [Compound A69] | 90 | 90 | 90 | 80 | 90 | 40 | 30 | 90 |  |
| OCCC[n+]1ccc(-c2ncco2)cn1 [Compound A70] | 40 | 40 | 80 | 40 | 40 | 30 | 20 | 40 |  |
| CCOP(=O)(CC[n+]1ccc(-c2ncco2)cn1)OCC [Compound A75] |  |  |  |  |  |  |  |  | pest or weed control at 125 g/ha ([1]; Amaranthus palmeri, post-emergence, 312 h, Application Rate 125 g/Ha, read-out: Control of weed species after post-emergence application, AMAPA (100=total damage to plant; 0=no damage to plant)): 0%; pest or weed control at 125 g/ha ([2]; Chenopodium album, post-emergence, 312 h, Application Rate 125 g/Ha, read-out: Control of weed species after post-emergence application, CHEAL (100=total damage to plant; 0=no damage to plant)): 40%; pest or weed control at 125 g/ha ([3]; Digitaria sanguinalis, post-emergence, 312 h, Application Rate 125 g/Ha, read-out: Control of weed species after post-emergence application, DIGSA (100=total damage to plant; 0=no damage to plant)): 10%; pest or weed control at 125 g/ha ([4]; Echinochloa crus-galli, post-emergence, 312 h, Application Rate 125 g/Ha, read-out: Control of weed species after post-emergence application, ECHCG (100=total damage to plant; 0=no damage to plant)): 0%; pest or weed control at 125 g/ha ([5]; Eleusine indica, post-emergence, 312 h, Application Rate 125 g/Ha, read-out: Control of weed species after post-emergence application, ELEIN (100=total damage to plant; 0=no damage to plant)): 0%; pest or weed control at 125 g/ha ([6]; Ipomoea hederacea, post-emergence, 312 h, Application Rate 125 g/Ha, read-out: Control of weed species after post-emergence application, IPOHE (100=total damage to plant; 0=no damage to plant)): 0%; pest or weed control at 125 g/ha ([7]; Lolium perenne, post-emergence, 312 h, Application Rate 125 g/Ha, read-out: Control of weed species after post-emergence application, LOLPE (100=total damage to plant; 0=no damage to plant)): 0%; pest or weed control at 125 g/ha ([8]; Setaria faberi, post-emergence, 312 h, Application Rate 125 g/Ha, read-out: Control of weed species after post-emergence application, SETFA (100=total damage to plant; 0=no damage to plant)): 0% |
| O=P(O)(O)CC[n+]1ccc(-c2ncco2)cn1 [Compound A77] | 50 | 70 | 90 | 60 | 0 | 60 | 0 | 80 |  |
| O=P(O)(O)CCC[n+]1ccc(-c2ncco2)cn1 [Compound A78] | 70 | 80 | 60 | 20 | 0 | 50 | 10 | 50 |  |
